What was measured:
Type in all cases: cell-based
human SGLT homolog [1] = molecular target: T1, human SGLT homolog (Homo sapiens, UniProt Q2M3M2, I269M); test: α-methyl glucose uptake in COS7 cells carrying pME18S-human-SGLT-homolog (pTB2193); conditions: NaCl + 100 μM or 1 mM phlorizin, one-hour incubation, FIG. 12
T1 construct: expressed in transfected cells
T1 sequence (Q2M3M2 8-681 I269M): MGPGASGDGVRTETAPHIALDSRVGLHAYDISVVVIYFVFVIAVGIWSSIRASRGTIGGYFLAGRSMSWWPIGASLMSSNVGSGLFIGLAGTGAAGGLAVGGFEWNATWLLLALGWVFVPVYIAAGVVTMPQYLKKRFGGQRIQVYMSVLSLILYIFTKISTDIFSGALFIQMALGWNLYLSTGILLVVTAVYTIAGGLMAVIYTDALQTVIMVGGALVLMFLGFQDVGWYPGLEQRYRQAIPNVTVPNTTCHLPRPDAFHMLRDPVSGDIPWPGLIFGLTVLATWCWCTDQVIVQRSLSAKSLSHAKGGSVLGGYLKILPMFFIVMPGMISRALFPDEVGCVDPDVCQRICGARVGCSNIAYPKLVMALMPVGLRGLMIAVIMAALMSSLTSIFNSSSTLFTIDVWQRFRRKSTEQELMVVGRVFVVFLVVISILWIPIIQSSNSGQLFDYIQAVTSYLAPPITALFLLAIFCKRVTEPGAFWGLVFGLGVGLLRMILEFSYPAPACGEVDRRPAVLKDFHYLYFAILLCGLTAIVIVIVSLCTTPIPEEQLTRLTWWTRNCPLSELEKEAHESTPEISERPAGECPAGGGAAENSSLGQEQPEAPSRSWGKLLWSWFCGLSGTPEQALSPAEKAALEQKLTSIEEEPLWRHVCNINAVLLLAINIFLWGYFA
Procedure: Each 1 μg of the expression vectors for animal cells: pME18S, pME18S-hSGLT2, pME18S-human-SGLT-homolog (pTB2193), pME18S-human-SGLT-homolog-SNP-C1 (pTB2251), pME18S-human-SGLT-homolog-SNP-C2 (pTB2252) and pME18S-human-SGLT-homolog-SNP-C3 (pTB2253), and 3 μl of FuGENE 6 (Roche) were added to Opti-MEM (Gibco-BRL) 100 μl for 15 min at room temperature. These mixtures were then added to COS7 cells (1×10^6 cells/1 ml of DMEM containing 10% FBS/well in 6-well plate) so that each gene was introduced into the cells.
Experimental incorporation of α-methyl glucose into the COS7 cells carrying pME 18S, pME18S-hSGLT2, pME 18S-human-SGLT-homolog (pTB2193), pME18S-human-SGLT-homolog-SNP-C 1 (pTB2251), pME18S-human-SGLT-homolog-SNP-C2 (pTB2252), and pME18S-human-SGLT-homolog-SNP-C3 (pTB2253) was carried out according to the method described in Am. J. Physiol. 270:G833-G843 (1996) and J. Clin. Invest. 93:397-404 (1994).
These gene-transfected cells were cultured for a day, and then plated on a 96-well plate in a cell density of 3×10^4 cells/well and in a volume of 100 μl of DMEM containing 10% FBS per well, and further cultured overnight at 37° C. […] The radioactivity of ^14C incorporated into the cells was counted with 100 μl of a liquid scintillator added per well.

mouse SGLT homolog = molecular target: T2, mouse SGLT homolog (Mus musculus, UniProt Q8VDT1); test: α-methyl glucose uptake in COS7 cell expressing the mouse SGLT homolog; conditions: COS7 cells, NaCl + 100 μM or 1 mM phlorizin, one-hour incubation, FIG. 6
T2 construct: expressed in transfected cells; host or cells: COS7 cells, transient, FuGENE6
T2 sequence (Q8VDT1 8-685): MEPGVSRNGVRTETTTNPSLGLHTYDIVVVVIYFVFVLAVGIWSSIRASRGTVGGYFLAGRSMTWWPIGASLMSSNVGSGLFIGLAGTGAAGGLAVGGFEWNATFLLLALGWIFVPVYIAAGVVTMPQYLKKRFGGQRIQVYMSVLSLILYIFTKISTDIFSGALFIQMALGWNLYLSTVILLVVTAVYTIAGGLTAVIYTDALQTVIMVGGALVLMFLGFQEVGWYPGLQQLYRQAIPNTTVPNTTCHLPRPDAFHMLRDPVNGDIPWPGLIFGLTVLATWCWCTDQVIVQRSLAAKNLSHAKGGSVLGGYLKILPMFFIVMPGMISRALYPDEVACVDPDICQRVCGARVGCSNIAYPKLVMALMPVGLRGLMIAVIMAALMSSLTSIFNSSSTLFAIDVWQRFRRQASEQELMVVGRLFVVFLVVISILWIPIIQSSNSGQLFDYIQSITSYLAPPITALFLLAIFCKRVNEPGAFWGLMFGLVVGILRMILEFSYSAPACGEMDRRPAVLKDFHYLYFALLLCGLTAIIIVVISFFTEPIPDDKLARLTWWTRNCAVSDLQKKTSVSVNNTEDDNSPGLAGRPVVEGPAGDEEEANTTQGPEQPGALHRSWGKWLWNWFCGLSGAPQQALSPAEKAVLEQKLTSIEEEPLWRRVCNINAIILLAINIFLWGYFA
Procedure: (§1) The cDNA of human SGLT1 (NCBI Accession NM_000343) was amplified by PCR from Clontech MTC panel kidney cDNA library, and subcloned into the expression vector for animal cells, pME18S between EcoRI and SpeI sites to prepare pME18S-hSGLT1. COS7 cells (5×10^5 cells) were transfected with each 1 μg of plasmids pME18S, pME18S-hSGLT1, and pME18S-mouse-SGLT-homolog according to the FuGENE6 method (Roche).
(§2) Experimental incorporation of α-methyl glucose into the COS7 cell having pMEI 8S, the COS7 cell expressing hSGLT1, and the COS7 cell expressing the mouse SGLT homolog was carried out according to the method described in Am. J. Physiol. 270:G833-G843 (1996) and J. Clin. Invest. 93:397-404,1994. These cells were plated on a 96-well plate in a cell density of 3×10^4 cells/well and in a volume of 100 μl of DMEM containing 10% FBS per well, and cultured overnight at 37° C. The cells were washed 3 times with 150 μl of a buffer solution (125 mM KCl, 1.2 mM KH2PO4, 2.5 mM CaCl2, 1.2 mM MgSO4, 4 mM Glutamine, 10 mM HEPES (pH 7.2), 0.1 mg/ml BSA), and cultured for an hour in the same buffer solution to remove the rest of glucose. […] The radioactivity of ^14C incorporated into the cells was counted with 100 μl of a liquid scintillator added per well.

rat SGLT homolog = test: α-methyl glucose uptake in COS7 cell expressing the rat SGLT homolog; conditions: COS7 cells, NaCl + 100 μM or 1 mM phlorizin, one-hour incubation, FIG. 9
Procedure: as §1, with “pME18S-rat-SGLT-homolog” for “pME18S-mouse-SGLT-homolog”
as §2, with “pME18S,” for “pMEI 8S,”, “rat” for “mouse”, “93:397-404, 1994.” for “93:397-404,1994.”

human SGLT homolog [2] = molecular target: T1, human SGLT homolog; test: α-methyl glucose uptake in CHO cell expressing the SGLT homolog; conditions: CHO cells, NaCl + 10 μM or 100 μM Phlorizin, one-hour incubation, FIG. 3
Procedure: Each cDNA of human SGLT1 (NCBI Accession NM_000343) and SGLT2 (NCBI Accession NM_003041) was amplified by PCR from Clontech MTC panel kidney cDNA library, and subcloned into the expression vector for animal cells, pME18S between EcoRI and SpeI sites to prepare pME18S-hSGLT1 and pME18S-hSGLT2. CHO cells (1×10^6 cells) were co-transfected with each 5 μg of plasmids pME18S, pMEI 8S-SGLT homolog, pMEI 8S-hSGLT1, and pME18S-hSGLT2, and the expression vector for animal cells, pRSVneo […] according to the LipofectAMINE PLUS method (GIBCOBRL). These cells were cultured in DMEM containing G418 (500 μg/ml) and 10% FBS for 2 weeks to select the drug-resistant clones.
Total RNAs were extracted from respective G418-resistant CHO cells using RNAeasy Mini Kit (Quiagen). The expression of the SGLT homolog, hSGLT1 and hSGLT2 was quantified using TaqMan Gold RT-PCR Kit (PE Biosystems) according to the TaqMan PCR method to select CHO cells expressing each gene.
Experimental incorporation of α-methyl glucose into the CHO cell expressing the SGLT homolog, the CHO cell expressing hSGLT1, the CHO cell expressing hSGLT2, and the CHO cell having pME18S was carried out according to the method described in Am. J. Physiol. 270:G833-G843 (1996) and J. Clin. Invest. 93:397-404, 1994. […] The radioactivity of ^14C incorporated into the cells was counted with 100 μl of a liquid scintillator added per well.

O=C(CCc1ccc(O)cc1)c1c(O)cc(O)cc1O[C@@H]1O[C@H](CO)[C@@H](O)[C@H](O)[C@H]1O [phlorizin]
inhibited: inhibition of NaCl-dependent glucose uptake activity (human SGLT homolog [1]) | inhibition of Na+-dependent α-methyl glucose uptake activity (mouse SGLT homolog) | inhibition of Na+-dependent α-methyl glucose uptake activity (rat SGLT homolog) | inhibition of Na-dependent α-methyl glucose uptake activity (human SGLT homolog [2])
